From publication PMC6965684, “Characterization of binding, functional activity, and contractile responses of the selective 5‐HT1F receptor agonist lasmiditan” (British Journal of Pharmacology, 2019) come the findings set out here.

For one experiment, the target named is T1, 5-HT2B receptor (Homo sapiens, UniProt P41595).
T1 construct: gene HTR2B; full-length human recombinant receptor in CHO-K1 cells (Ogeda); crude membranes
As to the kind of experiment: radioligand competition, CHO-K1 membranes. In kind it is binding. An excerpt: radioligand competition, CHO-K1 membranes on 5-HT2B receptor

Experiment [1] has as its target T2, 5-HT1F receptor (Homo sapiens, UniProt P30939).
T2 construct: gene HTR1F; full-length human recombinant receptor in CHO-K1 cells (Ogeda)
T2 sequence (P30939 1-366): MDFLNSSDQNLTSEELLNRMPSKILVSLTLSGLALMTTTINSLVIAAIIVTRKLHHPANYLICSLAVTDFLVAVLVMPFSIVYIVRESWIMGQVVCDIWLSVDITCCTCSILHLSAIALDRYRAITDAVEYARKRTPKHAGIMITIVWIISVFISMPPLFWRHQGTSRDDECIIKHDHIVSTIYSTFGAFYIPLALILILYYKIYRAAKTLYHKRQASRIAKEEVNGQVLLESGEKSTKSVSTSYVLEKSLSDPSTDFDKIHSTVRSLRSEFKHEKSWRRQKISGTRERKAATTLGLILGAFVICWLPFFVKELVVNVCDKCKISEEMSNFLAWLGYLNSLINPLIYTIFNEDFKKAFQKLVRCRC
As to the kind of experiment: radioligand competition, CHO-K1 membranes. In kind it is binding. The note with it: radioligand listed in supplement Table S1.

The target in the next experiment is T3, 5-HT1D receptor (Homo sapiens, UniProt P28221).
T3 construct: gene HTR1D; full-length human recombinant receptor in CHO-K1 cells (Ogeda); crude membranes
The experiment in a line: radioligand competition, CHO-K1 membranes. In kind it is binding. The settings on record: radioligand listed in supplement Table S1. An excerpt:
radioligand competition, CHO-K1 membranes on 5-HT1D receptor

In the next experiment the target is T4, 5-HT1A receptor (Homo sapiens, UniProt P08908).
T4 construct: gene HTR1A; full-length human recombinant receptor in CHO-K1 cells (Ogeda); crude membranes
T4 sequence (P08908 1-422): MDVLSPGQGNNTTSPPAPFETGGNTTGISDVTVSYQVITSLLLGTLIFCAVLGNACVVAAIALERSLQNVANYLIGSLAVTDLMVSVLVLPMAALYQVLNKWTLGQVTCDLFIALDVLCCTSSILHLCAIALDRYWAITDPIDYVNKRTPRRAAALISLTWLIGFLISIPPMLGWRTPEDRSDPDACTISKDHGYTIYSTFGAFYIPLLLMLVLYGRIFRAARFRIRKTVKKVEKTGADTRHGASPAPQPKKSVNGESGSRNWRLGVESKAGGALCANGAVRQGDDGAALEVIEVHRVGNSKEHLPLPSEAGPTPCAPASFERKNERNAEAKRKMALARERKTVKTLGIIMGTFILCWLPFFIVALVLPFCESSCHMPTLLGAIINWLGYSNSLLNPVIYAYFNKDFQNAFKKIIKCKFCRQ
As to the kind of experiment: radioligand competition, CHO-K1 membranes. The settings on record: radioligand listed in supplement Table S1. It is filed as binding. From the text:
radioligand competition, CHO-K1 membranes on 5-HT1A receptor

Experiment [2] deals with T2, 5-HT1F receptor. As to the kind of experiment: cAMP HTRF, stably transfected CHO-K1 cells. It is filed as cell-based. The note with it: agonist mode; inhibition of stimulated cAMP, […] min, room temperature.
The target of the next experiment is T5, 5-HT1B receptor (Homo sapiens, UniProt P28222).
T5 construct: gene HTR1B; full-length human recombinant receptor in CHO-K1 cells (Ogeda); crude membranes
As to the kind of experiment: radioligand competition, CHO-K1 membranes. The note with it: radioligand listed in supplement Table S1. In kind it is binding. An excerpt: radioligand competition, CHO-K1 membranes on 5-HT1B receptor

Experiment [3] deals with T6, 5-HT2A receptor (Homo sapiens, UniProt P28223).
T6 construct: gene HTR2A; full-length human recombinant receptor in CHO-K1 cells (Ogeda); crude membranes
As to the kind of experiment: cell-based. Details: species or system CHO-K1; IPOne HTRF agonist assay, IP1 accumulation in adherent transfected cells. How it is done: The assay was performed on adherent cells. For agonist testing, the medium was removed and 20 μl of assay buffer plus 20 μl of the studied agonist or the reference agonist were added in each well. The plate was incubated for 60 min at 37°C with 5% CO2. IP1‐D2 reagent and anti‐IP1 cryptate reagents were dispensed in the wells, and IP1 concentrations were then measured following the manufacturer instructions (IPOne HTRF assay kit; Cisbio International, Codolet, France). In brief, increasing concentrations of agonists were added to stably transfected cells in buffer in an Optiplate (PerkinElmer Life Sciences). The plates were incubated, and cells were then lysed by the addition of HTRF reagents (IP1‐D2 reagent and anti‐IP1 cryptate reagents) and diluted in lysis buffer, followed by incubation at room temperature. […] Additionally, the reference values obtained were compared to historical values obtained from the same receptor and used to validate the experimental session. […] For the new assays developed in this study (i.e., 5‐ht1E receptor), the two independent pIC50 determined must be concordant with a 1 log unit interval for the assays to be validated. […]

Experiment [4] addresses T7, 5-ht1E receptor (Homo sapiens, UniProt P28566).
T7 construct: gene HTR1E; full-length human recombinant receptor in CHO-K1 cells (Ogeda); crude membranes
The experiment in a line: radioligand competition, CHO-K1 membranes. In kind it is binding. An excerpt:
radioligand competition, CHO-K1 membranes on 5-ht1E receptor

Experiment [5] addresses T6, 5-HT2A receptor. As to the kind of experiment: biochemical. In kind it is CHO-K1 membranes. Details: radioligand competition binding on cell membranes, filtration and TopCount scintillation counting. How it is done: Competition binding was performed in duplicate in the wells of a 96‐well plate containing binding buffer (optimized for each receptor), cell membrane extracts (approximately 20,000 cells distributed in the 96‐well plate), radiotracer, and test agonist. Non‐specific binding was determined by co‐incubation with 200‐fold excess of competitor. Cells were incubated and exposed to varying concentrations (1 pM to 10 μM) of a range of displacer agonists (see below). The samples were incubated in a final volume of 0.1 ml and then filtered over Unifilter plates (Perkin Elmer, Massachusetts, USA) pretreated for 2 hr to limit tracer non‐specific binding. Filters were washed five times with 0.5 ml of ice‐cold washing buffer (tris 50 mM pH 7.4) and 50 μl of Microscint 20 (Perkin Elmer) were added to each filter. The plates were incubated 15 min at room temperature on an orbital shaker and then counted with a TopCount™ (Perkin Elmer) for 1 min per well. […] Additionally, the reference values obtained were compared to historical values obtained from the same receptor and used to validate the experimental session. […] For the new assays developed in this study (i.e., 5‐ht1E receptor), the two independent pIC50 determined must be concordant with a 1 log unit interval for the assays to be validated. […]

Experiment [6] deals with T7, 5-ht1E receptor. As to the kind of experiment: biochemical. It is filed as CHO-K1 membranes. Set-up: radioligand competition binding on cell membranes, filtration and TopCount scintillation counting. The settings on record: radioligand displacement; read-out: 5‐ht1E / pIC50 (converted). As to the method:
Competition binding was performed in duplicate in the wells of a 96‐well plate containing binding buffer (optimized for each receptor), cell membrane extracts (approximately 20,000 cells distributed in the 96‐well plate), radiotracer, and test agonist. Non‐specific binding was determined by co‐incubation with 200‐fold excess of competitor. Cells were incubated and exposed to varying concentrations (1 pM to 10 μM) of a range of displacer agonists (see below). The samples were incubated in a final volume of 0.1 ml and then filtered over Unifilter plates (Perkin Elmer, Massachusetts, USA) pretreated for 2 hr to limit tracer non‐specific binding. Filters were washed five times with 0.5 ml of ice‐cold washing buffer (tris 50 mM pH 7.4) and 50 μl of Microscint 20 (Perkin Elmer) were added to each filter. The plates were incubated 15 min at room temperature on an orbital shaker and then counted with a TopCount™ (Perkin Elmer) for 1 min per well. […] Additionally, the reference values obtained were compared to historical values obtained from the same receptor and used to validate the experimental session. […] For the new assays developed in this study (i.e., 5‐ht1E receptor), the two independent pIC50 determined must be concordant with a 1 log unit interval for the assays to be validated.

The target of experiment [7] is T7, 5-ht1E receptor. The experiment in a line: biochemical. In kind it is CHO-K1 membranes. Set-up: GTPγS agonist functional assay. The note with it: GTPγS. From the text: Additionally, the reference values obtained were compared to historical values obtained from the same receptor and used to validate the experimental session. […] For the new assays developed in this study (i.e., 5‐ht1E receptor), the two independent pIC50 determined must be concordant with a 1 log unit interval for the assays to be validated.

In experiment [8] the target is T7, 5-ht1E receptor. The experiment in a line: cell-based. Details: species or system CHO-K1; cAMP HTRF agonist assay, Gi coupled receptors, inhibition of stimulated cAMP. The settings on record: cAMP. As to the method: Concentration–response curves were performed in parallel with the agonists. […] After addition of the lysis buffer and 1‐hr incubation, cAMP concentrations were estimated according to the manufacturer specification with the HTRF kit (Cisbio International, Codelet, France). In brief, increasing concentrations of agonists were added to stably transfected cells in buffer in an Optiplate (PerkinElmer Life Sciences, Massachusetts, USA). The plates were incubated, and cells were then lysed by the addition of HTRF reagents (cAMP‐Cryptate and anti‐cAMP‐d2 reagents) and diluted in lysis buffer, followed by incubation at room temperature. […] Additionally, the reference values obtained were compared to historical values obtained from the same receptor and used to validate the experimental session. […] For the new assays developed in this study (i.e., 5‐ht1E receptor), the two independent pIC50 determined must be concordant with a 1 log unit interval for the assays to be validated.

[9] abbreviates: radioligand listed in supplement Table S1.
Setting [10] is: IP, read-out: 5‐HT2A / IP (converted).
Where [11] appears, read: radioligand displacement, read-out: 5‐HT2A / pIC50 (converted).
[12] abbreviates: radioligand displacement, read-out: 5‐HT2A / pKi (converted).

Counter-ions that a name gives are not always drawn. Like-named read-outs stand apart in the source and are kept apart here.

T6 sequence (P28223 whole entry): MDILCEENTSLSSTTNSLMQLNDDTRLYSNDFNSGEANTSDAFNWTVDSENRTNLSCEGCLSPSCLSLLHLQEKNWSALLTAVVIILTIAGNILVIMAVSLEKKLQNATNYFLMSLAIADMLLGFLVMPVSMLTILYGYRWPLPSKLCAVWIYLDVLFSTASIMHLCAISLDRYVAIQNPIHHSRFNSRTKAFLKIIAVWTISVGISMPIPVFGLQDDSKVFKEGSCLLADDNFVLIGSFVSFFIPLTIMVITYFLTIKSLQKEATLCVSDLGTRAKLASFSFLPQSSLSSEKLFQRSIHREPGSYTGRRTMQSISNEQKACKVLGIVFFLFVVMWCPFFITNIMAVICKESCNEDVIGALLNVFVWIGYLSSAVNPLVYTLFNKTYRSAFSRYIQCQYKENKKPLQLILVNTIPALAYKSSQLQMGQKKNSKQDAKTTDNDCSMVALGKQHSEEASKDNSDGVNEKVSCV
T7 sequence (P28566 whole entry): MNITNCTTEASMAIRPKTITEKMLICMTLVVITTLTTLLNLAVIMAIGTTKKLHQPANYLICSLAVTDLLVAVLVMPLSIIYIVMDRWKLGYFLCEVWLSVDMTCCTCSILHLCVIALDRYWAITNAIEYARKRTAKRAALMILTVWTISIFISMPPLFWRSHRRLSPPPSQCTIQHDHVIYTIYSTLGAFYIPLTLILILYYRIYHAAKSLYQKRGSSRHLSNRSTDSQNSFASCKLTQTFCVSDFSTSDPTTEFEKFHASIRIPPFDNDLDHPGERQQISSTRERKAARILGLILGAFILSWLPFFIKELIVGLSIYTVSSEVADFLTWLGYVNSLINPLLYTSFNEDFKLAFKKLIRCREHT
T1 sequence (P41595 whole entry): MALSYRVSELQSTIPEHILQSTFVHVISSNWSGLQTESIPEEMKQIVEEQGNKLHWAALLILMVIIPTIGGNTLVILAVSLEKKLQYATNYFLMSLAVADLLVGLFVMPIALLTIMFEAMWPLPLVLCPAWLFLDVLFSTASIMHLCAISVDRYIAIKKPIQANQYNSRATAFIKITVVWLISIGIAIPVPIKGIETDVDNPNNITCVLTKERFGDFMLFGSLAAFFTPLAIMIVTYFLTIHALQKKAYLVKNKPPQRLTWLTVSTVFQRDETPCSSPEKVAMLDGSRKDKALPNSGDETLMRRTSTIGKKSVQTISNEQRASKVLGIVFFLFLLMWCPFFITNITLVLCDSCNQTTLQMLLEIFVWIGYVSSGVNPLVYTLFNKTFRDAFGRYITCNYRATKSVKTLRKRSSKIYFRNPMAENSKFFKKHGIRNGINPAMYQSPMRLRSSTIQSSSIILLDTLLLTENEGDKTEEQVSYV
T3 sequence (P28221 whole entry): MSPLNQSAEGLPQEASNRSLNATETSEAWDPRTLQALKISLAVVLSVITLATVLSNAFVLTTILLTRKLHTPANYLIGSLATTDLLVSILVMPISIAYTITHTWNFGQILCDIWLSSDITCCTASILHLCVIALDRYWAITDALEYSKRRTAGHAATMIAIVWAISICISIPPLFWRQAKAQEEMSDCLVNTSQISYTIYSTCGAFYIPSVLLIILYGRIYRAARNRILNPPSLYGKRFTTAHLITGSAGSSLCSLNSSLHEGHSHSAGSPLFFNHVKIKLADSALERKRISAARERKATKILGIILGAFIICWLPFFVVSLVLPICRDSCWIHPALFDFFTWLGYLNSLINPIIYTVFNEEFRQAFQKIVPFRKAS
T5 sequence (P28222 whole entry): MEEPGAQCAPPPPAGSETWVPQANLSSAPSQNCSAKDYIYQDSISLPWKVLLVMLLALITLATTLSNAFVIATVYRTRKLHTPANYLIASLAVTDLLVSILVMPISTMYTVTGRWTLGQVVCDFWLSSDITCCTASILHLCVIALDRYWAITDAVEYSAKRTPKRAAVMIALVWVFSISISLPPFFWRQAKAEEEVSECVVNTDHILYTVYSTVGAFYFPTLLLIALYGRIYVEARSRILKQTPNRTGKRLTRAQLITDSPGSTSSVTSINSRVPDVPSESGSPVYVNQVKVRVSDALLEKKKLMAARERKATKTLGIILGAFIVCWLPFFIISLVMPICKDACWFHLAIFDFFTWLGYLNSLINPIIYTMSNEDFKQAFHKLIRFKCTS

Turning to `CN(C)CCc1c[nH]c2ccc(CS(=O)(=O)N3CCCC3)cc12` [Almotriptan malate], the “/ pKi” value on 5-HT2B receptor (setting [9]) is reported as < 5 -log M. The “5-HT1F / pKi” value at 5-HT1F receptor [1] is 7.57 -log M. For the same molecule, the “5-HT1D / pKi” value on 5-HT1D receptor is reported as 8.26 -log M. Besides, the “5-HT1A / pKi” value on 5-HT1A receptor is on record as 6.73 -log M. The “5-HT1F / cAMP” value at 5-HT1F receptor [2] is 7.79 -log M. For the same molecule, the “5-HT1B / pKi” value on 5-HT1B receptor is 8.45 -log M. In addition, on 5-HT2A receptor [3] (setting [10]), the EC50 is more than 10 µM. In addition, the “5-ht1E / pKi” value on 5-ht1E receptor [4] (setting [9]) is recorded as < 5 -log M. Besides, on 5-HT2A receptor [5] (setting [11]), the IC50 was more than 10 µM. The Ki at 5-HT2A receptor [5] (setting [12]) is more than 10 µM.
As for `c1ccc2c(c1)CC[C@H](CNCCCNC1=NCCCN1)O2` [Alniditan dihydrochloride], the EC50 on 5-HT2A receptor [3] (setting [10]) was more than 10 µM. The IC50 on 5-HT2A receptor [5] (setting [11]) is more than 10 µM.
`CN1CCC(c2c[nH]c3ccc(NC(=O)c4ccc(F)cc4)cc23)CC1` [LY334370 hydrochloride]: at 5-HT2A receptor [3] (setting [10]), the EC50 is more than 10 µM. The IC50 on 5-HT2A receptor [5] (setting [11]) was 7.76 µM.
On 5-HT2A receptor [3], `CN(C)CCc1c[nH]c2ccc(Cn3cncn3)cc12` [Rizatriptan benzoate] returned an EC50 of more than 10 µM. In addition, at 5-HT2A receptor [5], the IC50 was more than 10 µM and the Ki was more than 10 µM.
On to `CNS(=O)(=O)Cc1ccc2[nH]cc(CCN(C)C)c2c1` [Sumatriptan succinate], for which, on 5-ht1E receptor [6], the IC50 was 3.8 µM. For the same molecule, the Ki at 5-HT2B receptor (read-out: / pKi (converted)) is more than 10 µM; on 5-ht1E receptor [4] (read-out: 5-ht1E / pKi (converted)), 1.91 µM. Further, the results for the EC50 at 5-ht1E receptor [7] and on 5-ht1E receptor [8] were 1.62 µM and 1.02 µM, respectively.
As to `CN(C)CCc1c[nH]c2ccc(C[C@H]3COC(=O)N3)cc12` [Zolmitriptan], the EC50 on 5-HT2A receptor [3] (setting [10]) was more than 10 µM. In addition, the IC50 on 5-HT2A receptor [5] (setting [11]) was more than 10 µM. Moreover, the Ki at 5-HT2A receptor [5] (setting [12]) is more than 10 µM.
